Laboratory results as given in paper PMC10926604, “Discovery of a novel small molecule as CD47/SIRPα and PD-1/PD-L1 dual inhibitor for cancer immunotherapy” (Cell Communication and Signaling : CCS, 2024).
Entries after “also recorded” stand apart in the source; their conditions may differ.

How the values were obtained:
[1] = biological target: T1, human PD-L1 (hPD-L1) (Homo sapiens, UniProt Q9NZQ7); assay: MST binding assay, human PD-L1; conditions: PD-L1-IgV-His, read-out: dissociation constant (KD) for human PD-L1
T1 construct: PD-L1-IgV-His (human: 10,084-H08H, mouse: 50,010-M08H, Sino Biological); His; purchased Sino Biological 10,084-H08H
T1 sequence (Q9NZQ7 19-127 limits assumed): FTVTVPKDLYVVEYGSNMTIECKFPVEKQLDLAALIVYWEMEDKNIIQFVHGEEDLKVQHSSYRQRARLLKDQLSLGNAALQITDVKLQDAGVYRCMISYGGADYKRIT
Experimental: SIPRα-IgV-His (human: SIA-H5225, mouse: SIA-M52H4, ACRO Biosystems) and PD-L1-IgV-His (human: 10,084-H08H, mouse: 50,010-M08H, Sino Biological) proteins were labeled with Red-NHS647 dye (NT-MO-L001, NanoTemper) for subsequent experiments. SMC18 (C385-0664, ChemDiv) was serially diluted using PBST (from 0.0191 μM to 200 μM) and mixed with the labeled proteins. The samples were then aspirated using standard capillaries and assayed by MST instrument (Monolith NT.115, NanoTemper), and the results were analyzed using the analytical software Monolith NT.115 system to calculate the dissociation constant (KD) values.

[2] = biological target: T2, human CD47/SIRPα (Homo sapiens, UniProt P78324); assay: Cell-based blocking assay, human CD47/SIRPα; conditions: CHO-K1-hCD47 cells, SIRPα-Fc, flow cytometry; read-out: IC50 for blocking human CD47/SIRPα interaction
T2 construct: purchased ACRO Biosystems SIA-H5251; host or cells: CHO-K1-hCD47 cells carry the partner (lentiviral transfection)
T2 sequence (P78324 31-370 limits assumed): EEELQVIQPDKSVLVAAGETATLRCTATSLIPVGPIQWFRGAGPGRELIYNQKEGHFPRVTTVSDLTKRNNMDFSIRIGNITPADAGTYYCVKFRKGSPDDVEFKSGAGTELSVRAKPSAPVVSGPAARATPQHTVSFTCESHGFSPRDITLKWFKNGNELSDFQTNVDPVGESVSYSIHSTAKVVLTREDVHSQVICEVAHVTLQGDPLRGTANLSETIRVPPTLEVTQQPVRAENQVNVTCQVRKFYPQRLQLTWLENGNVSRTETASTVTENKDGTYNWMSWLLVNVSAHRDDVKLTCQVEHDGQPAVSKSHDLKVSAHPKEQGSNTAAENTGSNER
Experimental: (§1) The CHO-K1 cell line with stable expression of CD47 and PD-1 was constructed previously by our group. SMC18 was serially diluted using PBS 7.2 (containing 1% DMSO) and incubated with 100 ng of SIRPα-Fc protein (human: SIA-H5251, mouse: SIA-M5258, ACRO Biosystems) and 50 ng of PD-L1-Fc protein (human: 10,084-H02H, mouse: 50,010-M02H, Sino Biological) on ice for 30 min. The mixture was then added to the corresponding CHO-K1-CD47 or CHO-K1-PD-1 cells and further incubated on ice for 30 min. Afterward, PE-conjugated anti-human IgG (Fc) antibody (A18272, eBioscience) was added. The mean fluorescence intensity (MFI) of the cells was detected using flow cytometry (BD FACSCalibur) and the blocking efficiency was calculated.

[3] = biological target: T3, murine CD47/SIRPα (Mus musculus, UniProt P97797); assay: Cell-based blocking assay, murine CD47/SIRPα; conditions: CHO-K1-mCD47 cells, SIRPα-Fc, flow cytometry; read-out: IC50 for blocking murine CD47/SIRPα interaction
T3 construct: purchased ACRO Biosystems SIA-M5258; host or cells: CHO-K1-mCD47 cells carry the partner (lentiviral transfection)
T3 sequence (P97797 32-373 limits assumed): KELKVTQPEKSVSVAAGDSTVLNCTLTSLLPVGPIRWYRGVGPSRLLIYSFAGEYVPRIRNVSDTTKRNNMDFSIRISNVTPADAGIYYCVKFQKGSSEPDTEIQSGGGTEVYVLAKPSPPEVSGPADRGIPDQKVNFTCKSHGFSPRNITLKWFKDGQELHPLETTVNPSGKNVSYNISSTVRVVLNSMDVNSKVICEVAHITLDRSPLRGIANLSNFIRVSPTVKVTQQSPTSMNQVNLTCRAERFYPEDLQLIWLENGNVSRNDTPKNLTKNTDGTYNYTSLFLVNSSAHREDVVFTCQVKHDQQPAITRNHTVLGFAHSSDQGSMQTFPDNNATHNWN
Experimental: as §1

[4] = biological target: hTIGIT/hPVR (Homo sapiens, UniProt P15151+Q495A1); assay: Blockade of other immune checkpoint pathways, TIGIT/PVR; type: cell-based; conditions: Fig. S2
Chain of hTIGIT/hPVR (Q495A1 22-244): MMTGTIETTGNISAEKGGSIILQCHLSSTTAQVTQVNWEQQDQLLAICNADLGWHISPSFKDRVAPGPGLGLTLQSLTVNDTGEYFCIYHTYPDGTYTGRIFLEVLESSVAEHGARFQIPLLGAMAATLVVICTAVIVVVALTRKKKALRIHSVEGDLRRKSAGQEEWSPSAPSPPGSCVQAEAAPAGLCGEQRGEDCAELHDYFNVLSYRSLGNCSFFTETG
Chain of hTIGIT/hPVR (P15151 21-417): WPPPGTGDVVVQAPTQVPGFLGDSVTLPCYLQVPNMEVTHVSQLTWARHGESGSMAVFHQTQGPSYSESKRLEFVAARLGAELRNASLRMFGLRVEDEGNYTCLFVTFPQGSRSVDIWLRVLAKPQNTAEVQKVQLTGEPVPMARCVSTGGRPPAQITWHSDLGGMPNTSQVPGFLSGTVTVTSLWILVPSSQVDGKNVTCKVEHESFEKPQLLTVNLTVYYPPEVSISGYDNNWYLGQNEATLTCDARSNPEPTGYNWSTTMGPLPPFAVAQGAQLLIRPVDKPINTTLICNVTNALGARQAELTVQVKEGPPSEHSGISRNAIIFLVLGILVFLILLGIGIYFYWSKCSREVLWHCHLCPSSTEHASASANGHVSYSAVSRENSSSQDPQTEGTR

[5] = test system: B16-OVA cells; assay: MTT assay, B16-OVA cells; type: cell-based, mouse; conditions: 100 µM; 24 h, 48 h, 72 h
Experimental: MC38 and B16-OVA cells were seeded into 96-well plates at a density of 3,000 cells per well, respectively and allowed to adhere overnight. SMC18 was added to the cells and incubated for 24 h, 48 h and 72 h, respectively. Cell viability was measured by adding MTT (3-(4, 5-dimethyl-2-thiazolyl)-2,5-diphenyl-2-H-tetrazolium bromide, 298–93-1, Sigma) solution and incubating for 4 h. The cells were then lysed by shaking with DMSO. The absorbance values at 490 nm were measured using a multi-mode microplate reader (Molecular Devices, SpectraMax iD5).
Fig S3. The Effect of SMC18 on Tumor Cell Proliferation in vitro. MC38 cells (3000 cells/well) and B16-OVA cells (3000 cells/well) were seeded in flat-bottomed 96-well plates and allowed to adhere overnight. Subsequently, the cells were starved for 8 hours in serum-free medium. SMC18 was diluted in complete culture medium and added to the wells, following which the cells were incubated for 24 h, 48 h, and 72 h. After the designated incubation periods, 20 μL of MTT solution was added to each well. Four hours later, the supernatant was aspirated, and 150 μL of DMSO was added to each well to dissolve the MTT formazan product. The plates were then shaken for 10 minutes, and absorbance was measured at 490 nm using a microplate reader.

Cc1cc(C)cc(NS(=O)(=O)c2ccc3[nH]cc(C(=O)NCCc4ccccc4)c(=O)c3c2)c1 [SMC18]
Kd [1]: 0.029 ± 0.03 µM
IC50 [2]: 17.8 ± 8.2 µM
IC50 [3]: 58.9 ± 3.2 µM
inhibitory effect on hTIGIT/hPVR pathway [4]: no blocking effect; also recorded: did not impede
toxicity towards B16-OVA cells (MTT) [5]: only mild toxicity
